Data: patent US12673975B2, “Cyclic peptide, cell scaffold material, cell separating material, and medium” (FUJIFILM Corporation, priority 2019, dated 2026)
pKd: −log10 of the molar value. Starred links: 1 amine or outer side, 2 acyl side, 3 side chain; linkers in the order of their positions; H or OH if unused. Positions of bridges follow the written chain, without caps; N, C: chain ends. Non-standard residues stand in square brackets, D forms with d. Residues, ends and D or L forms follow the SMILES beside them. hCys = N[C@@H](CCS)C(=O)O; Dab = NCC[C@H](N)C(=O)O; Dap = NC[C@H](N)C(=O)O; X1 = O=C(C[*:2])[*:1]; X2 = O=C(C[*:1])[*:2]

Tests used:
human integrin αvβ5 = human integrin αvβ5 (Homo sapiens, UniProt P06756+P18084); test: Evaluation of integrin binding property (surface plasmon resonance, Biacore 3000, immobilized cyclic peptide); details: surface plasmon resonance, immobilized cyclic peptide, human integrin αvβ5; read-out: Binding activity (integrin binding property, dissociation constant rank)
human integrin αvβ5, sequence (P06756 31-1048): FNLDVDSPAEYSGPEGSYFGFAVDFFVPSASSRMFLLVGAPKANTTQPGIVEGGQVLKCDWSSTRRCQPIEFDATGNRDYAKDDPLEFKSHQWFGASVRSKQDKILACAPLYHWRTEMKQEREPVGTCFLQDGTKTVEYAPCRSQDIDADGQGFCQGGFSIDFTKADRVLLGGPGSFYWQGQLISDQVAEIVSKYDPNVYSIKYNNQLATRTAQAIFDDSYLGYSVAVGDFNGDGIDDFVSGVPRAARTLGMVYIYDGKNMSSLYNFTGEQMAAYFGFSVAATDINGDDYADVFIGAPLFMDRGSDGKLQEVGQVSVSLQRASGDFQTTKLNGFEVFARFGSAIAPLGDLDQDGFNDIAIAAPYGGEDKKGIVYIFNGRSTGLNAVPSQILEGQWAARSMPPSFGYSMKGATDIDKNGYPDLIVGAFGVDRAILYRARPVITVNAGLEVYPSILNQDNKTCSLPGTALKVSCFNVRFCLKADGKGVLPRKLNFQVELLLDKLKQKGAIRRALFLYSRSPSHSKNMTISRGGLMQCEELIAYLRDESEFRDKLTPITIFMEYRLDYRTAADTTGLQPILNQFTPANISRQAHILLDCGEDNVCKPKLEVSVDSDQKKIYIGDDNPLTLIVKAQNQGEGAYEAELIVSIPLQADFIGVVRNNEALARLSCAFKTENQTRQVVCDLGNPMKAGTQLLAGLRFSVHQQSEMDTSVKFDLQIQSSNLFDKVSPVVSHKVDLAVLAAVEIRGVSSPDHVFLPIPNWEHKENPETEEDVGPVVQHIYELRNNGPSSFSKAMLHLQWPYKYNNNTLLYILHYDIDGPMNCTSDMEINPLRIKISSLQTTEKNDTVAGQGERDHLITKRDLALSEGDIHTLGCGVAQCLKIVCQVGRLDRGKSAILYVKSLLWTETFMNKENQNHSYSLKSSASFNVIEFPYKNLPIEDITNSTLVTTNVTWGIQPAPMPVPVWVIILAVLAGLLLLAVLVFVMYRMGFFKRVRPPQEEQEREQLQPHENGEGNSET
human integrin αvβ5, sequence (P18084 24-799): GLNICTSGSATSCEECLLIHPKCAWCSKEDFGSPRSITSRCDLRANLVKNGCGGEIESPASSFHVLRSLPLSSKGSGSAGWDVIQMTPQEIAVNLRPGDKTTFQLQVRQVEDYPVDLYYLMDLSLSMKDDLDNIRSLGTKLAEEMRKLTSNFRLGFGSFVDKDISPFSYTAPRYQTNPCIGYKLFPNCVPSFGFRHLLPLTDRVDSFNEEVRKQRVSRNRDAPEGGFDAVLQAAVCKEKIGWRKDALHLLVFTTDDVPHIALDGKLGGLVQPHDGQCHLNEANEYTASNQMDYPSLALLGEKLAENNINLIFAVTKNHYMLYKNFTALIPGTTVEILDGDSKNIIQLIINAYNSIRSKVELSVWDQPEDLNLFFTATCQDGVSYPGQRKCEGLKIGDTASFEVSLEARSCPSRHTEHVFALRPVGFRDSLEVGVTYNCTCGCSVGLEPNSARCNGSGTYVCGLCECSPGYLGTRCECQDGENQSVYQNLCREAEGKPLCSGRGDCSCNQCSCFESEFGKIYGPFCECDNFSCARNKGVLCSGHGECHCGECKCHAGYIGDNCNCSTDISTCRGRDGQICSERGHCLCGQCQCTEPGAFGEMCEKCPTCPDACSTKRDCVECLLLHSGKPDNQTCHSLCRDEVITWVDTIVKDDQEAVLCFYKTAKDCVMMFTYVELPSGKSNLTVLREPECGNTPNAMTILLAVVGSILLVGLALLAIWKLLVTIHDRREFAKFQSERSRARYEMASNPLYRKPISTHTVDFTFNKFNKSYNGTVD
In short: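 SPR with cyclic peptide amine-coupled via EDC/NHS to a CM5 chip, blank channel as reference. Integrin αvβ5 at 30, 100, 300 and 1,000 nM injected 10 min at 25 °C in HEPES buffer pH 7.4 with 5 mM MgCl2, 30 min buffer flow, EDTA regeneration; Kd from reference-subtracted signals, graded by category.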

[1] = Evaluation of molecule stability (alkali treatment, residual rate by LC/MS); type: physicochemical; details: for Stability (molecule stability, residual rate of the cyclic peptide rank): alkali treatment, residual rate by LC/MS; for molecule stability (in words): summary of Table 9 to Table 13
In short: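 500 μM aqueous cyclic peptide mixed with an equal volume of 1 M NaOH and held 3 h at 15 °C. Residual rate is total LC/MS peak area after treatment relative to untreated (100%), using a C18 column, pH 3 ammonium formate/acetonitrile gradient, 45 °C, ESI±.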

Compound | pKd (human integrin αvβ5) | Stability (molecule stability, residual rate of the cyclic peptide rank) [1] | molecule stability (in words) [1]
C[C@H](NC(=O)[C@@H]1CCNC(=O)CSCC[C@H](NC(=O)[C@H](C)NC(=O)[C@H](CCCCN)NC(=O)[C@H](CCCCN)NC(=O)[C@@H](N)CCCCN)C(=O)N[C@@H]([C@@H](C)O)C(=O)N[C@@H]([C@@H](C)O)C(=O)N[C@@H](CCCNC(=N)N)C(=O)NCC(=O)N[C@@H](CC(=O)O)C(=O)N[C@@H](CO)C(=O)N[C@@H](Cc2ccccc2)C(=O)N[C@@H](C)C(=O)N1)C(=O)O [Cyclic peptide 161, KKKA-(Hcy)-TTRGDSFA(Dab(acetyl))A] (H-KKKA[hCys]TTRGDSFA[Dab]A-OH; linker 5-14 via X2) | 7.00 to 7.30 | A (The residual rate of the cyclic peptide is 70% or more.) | –
CC[C@H](C)[C@@H]1NC(=O)[C@@H](NC(=O)[C@H](C)NC(=O)[C@H](CCCCN)NC(=O)[C@H](CCCCN)NC(=O)[C@@H](N)CCCCN)CCSCC(=O)NCC[C@@H](C(=O)O)NC(=O)[C@H](C)NC(=O)[C@H](Cc2ccccc2)NC(=O)[C@H](CO)NC(=O)[C@H](CC(=O)O)NC(=O)CNC(=O)[C@H](CCCNC(=N)N)NC(=O)[C@@H]2CCCN2C1=O [Cyclic peptide 162, KKKA-(Hcy)-IPRGDSFA(Dab(acetyl))] (H-KKKA[hCys]IPRGDSFA[Dab]-OH; linker 5-14 via X2) | > 7.30 | A (The residual rate of the cyclic peptide is 70% or more.) | –
CC[C@H](C)[C@@H]1NC(=O)[C@@H](NC(=O)[C@H](CCCCN)NC(=O)[C@H](CCCCN)NC(=O)[C@@H](N)CCCCN)CCSCC(=O)NCC[C@@H](C(=O)N[C@@H](C)C(=O)O)NC(=O)[C@H](C)NC(=O)[C@H](Cc2ccccc2)NC(=O)[C@H](CO)NC(=O)[C@H](CC(=O)O)NC(=O)CNC(=O)[C@H](CCCNC(=N)N)NC(=O)[C@@H]2CCCN2C1=O [Cyclic peptide 163, KKK-(Hcy)-IPRGDSFA(Dab(acetyl))A] (H-KKK[hCys]IPRGDSFA[Dab]A-OH; linker 4-13 via X2) | > 7.30 | A (The residual rate of the cyclic peptide is 70% or more.) | –
CC(C)[C@@H]1NC(=O)[C@@H](NC(=O)[C@H](C)NC(=O)[C@H](CCCCN)NC(=O)[C@H](CCCCN)NC(=O)[C@@H](N)CCCCN)CCSCC(=O)NCC[C@@H](C(=O)O)NC(=O)[C@H](C)NC(=O)[C@H](Cc2ccccc2)NC(=O)[C@H]([C@@H](C)O)NC(=O)[C@H](CC(=O)O)NC(=O)CNC(=O)[C@H](CCCNC(=N)N)NC(=O)[C@@H]2CCCN2C1=O [Cyclic peptide 164, KKKA-(Hcy)-VPRGDTFA(Dab(acetyl))] (H-KKKA[hCys]VPRGDTFA[Dab]-OH; linker 5-14 via X2) | > 7.30 | A (The residual rate of the cyclic peptide is 70% or more.) | –
CC(C)[C@@H]1NC(=O)[C@@H](NC(=O)[C@H](CCCCN)NC(=O)[C@H](CCCCN)NC(=O)[C@@H](N)CCCCN)CCSCC(=O)NCC[C@@H](C(=O)N[C@@H](C)C(=O)O)NC(=O)[C@H](C)NC(=O)[C@H](Cc2ccccc2)NC(=O)[C@H]([C@@H](C)O)NC(=O)[C@H](CC(=O)O)NC(=O)CNC(=O)[C@H](CCCNC(=N)N)NC(=O)[C@@H]2CCCN2C1=O [Cyclic peptide 165, KKK-(Hcy)-VPRGDTFA(Dab(acetyl))A] (H-KKK[hCys]VPRGDTFA[Dab]A-OH; linker 4-13 via X2) | > 7.30 | A (The residual rate of the cyclic peptide is 70% or more.) | –
C[C@H](NC(=O)[C@H](CCCCN)NC(=O)[C@H](CCCCN)NC(=O)[C@@H](N)CCCCN)C(=O)N[C@H]1CNC(=O)CSC[C@@H](C(=O)O)NC(=O)[C@H](CCCNC(=N)N)NC(=O)[C@H](Cc2ccc(O)cc2)NC(=O)[C@H](CC(N)=O)NC(=O)[C@H](CC(=O)O)NC(=O)CNC(=O)[C@H](CCCNC(=N)N)NC(=O)[C@@H]2CCCN2C(=O)[C@H](CCC(=O)O)NC1=O [Cyclic peptide 166, KKKA(Dap(acetyl))EPRGDNYR(C), reference compound] (H-KKKA[Dap]EPRGDNYRC-OH; linker 5-14 via X1) | > 7.30 | D (The residual rate of the cyclic peptide is less than 30%.) | a practically sufficient molecule stability could be obtained
N=C(N)NCCC[C@@H]1NC(=O)[C@H](Cc2ccc(O)cc2)NC(=O)[C@H](CC(N)=O)NC(=O)[C@H](CC(=O)O)NC(=O)CNC(=O)[C@H](CCCNC(=N)N)NC(=O)[C@@H]2CCCN2C(=O)[C@H](CCC(=O)O)NC(=O)[C@@H](NC(=O)[C@H](CCCCN)NC(=O)[C@H](CCCCN)NC(=O)[C@@H](N)CCCCN)CNC(=O)CSC[C@@H](C(=O)O)NC1=O [Cyclic peptide 167, KKK(Dap(acetyl))EPRGDNYR(C), reference compound] (H-KKK[Dap]EPRGDNYRC-OH; linker 4-13 via X1) | 7.00 to 7.30 | D (The residual rate of the cyclic peptide is less than 30%.) | a practically sufficient molecule stability could be obtained
